Patent US7803801B2, “Aminopyridine compounds having Syk inhibitory activity” (Japan Tobacco, Inc., priority 2005, dated 2010)
Counter-ions that a name gives are not always drawn.

The compounds below were run against GST-Syk Full Protein (human) (Homo sapiens, UniProt P43405) (assay: Syk kinase inhibition test (HTRF method)). Conditions: HTRF, 100 μM ATP, 30 min room temperature, average; read-out: sykHTRF ave IC50.
Assay type: biochemical
How it was run: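 HTRF read-out: after EDTA termination and 1 h with XL665-streptavidin and Eu-anti-phosphotyrosine, the 665/620 nm ratio was measured. The reaction ran 30 min at 20–25 °C with final 6.4 nM human GST-Syk, 250 nM biotinylated peptide, 100 μM ATP, pH 7.0 HEPES buffer, 2% DMSO.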

`CCOC(=O)c1nc([C@H](C)NC(=O)OC(C)(C)C)sc1-c1cccc(Nc2cc(C)ccn2)n1` [Compound A-100] and `CON(C)C(=O)c1nc([C@H](C)NC(C)=O)sc1-c1cccc(Nc2cc(C)ccn2)n1` [Compound A-125] cannot be ordered by IC50: over 1000 nM for the first, over 1000 nM for the second.

First: COC(=O)c1ccc(CCc2ncc(-c3cccc(Nc4cc(C)ccn4)n3)s2)cc1 [Compound A-149]
Second: Cc1ccnc(Nc2cccc(-c3cnc(N4CCC(C(C)(C)C(=O)O)CC4)s3)n2)c1 [Compound A-18, 2-methyl-2-(1-{5-[6-(4-methylpyridin-2-ylamino)pyridin-2-yl]thiazol-2-yl}piperidin-4-yl)propionic acid]
The IC50 of the first is higher: over 1000 nM for the first, under 100 nM for the second.

In the case of `Cc1cccnc1Nc1cccc(-c2cnc([C@H](C)O)s2)n1` [Compound A-327], the IC50 is reported as over 1000 nM.

Same assay, conditions: Tables 1-x, compounds A; read-out: sykHTRF ave IC50

`CC(=O)NCCNC(=O)C1CCC(N(C)c2ncc(-c3cccc(Nc4cc(C)ccn4)n3)s2)CC1` (centres unmarked) [Compound A-494, N-(2-acetylaminoethyl)-4-(N′-methyl-N′-{5-[6-(4-methylpyridin-2-ylamino)pyridin-2-yl]thiazol-2-yl}amino)cyclohexanecarboxamide] and `Cc1ccnc(Nc2cccc(-c3cnc(N(C)C4CCN(C(=O)NCCO)CC4)s3)n2)c1` [Compound A-705, N-(2-hydroxyethyl)-4-(N′-methyl-N′-{5-[6-(4-methylpyridin-2-ylamino)pyridin-2-yl]thiazol-2-yl}amino)piperidine-1-carboxamide] cannot be ordered by IC50: under 100 nM for the first, under 100 nM for the second.

`Cc1ccnc(Nc2cccc(-c3cnc(N(C)CCCC(=O)O)s3)n2)c1` [Compound A-634, 4-(N-methyl-N-{5-[6-(4-methylpyridin-2-ylamino)pyridin-2-yl]thiazol-2-yl}amino)butyric acid dihydrochloride] and `Cc1ccnc(Nc2cccc(-c3cnc(N(C)CCC/C=C/C(=O)O)s3)n2)c1` [Compound A-640, (E)-6-(N-methyl-N-{5-[6-(4-methylpyridin-2-ylamino)pyridin-2-yl]thiazol-2-yl}amino)hex-2-enoic acid dihydrochloride] cannot be ordered by IC50: under 100 nM for the first, under 100 nM for the second.

First: Cc1ccnc(Nc2cccc(-c3cnc(N(C)C4CCN(C(=O)N(C)C)CC4)s3)n2)c1 [Compound A-511, N,N-dimethyl-4-(N′-methyl-N′-{5-[6-(4-methylpyridin-2-ylamino)pyridin-2-yl]thiazol-2-yl}amino)piperidine-1-carboxamide]
Second: CCOC(=O)N1CCC(N(C)c2ncc(-c3cccc(Nc4cc(C)ccn4)n3)s2)CC1 [Compound A-445]
The IC50 of the first is lower: under 100 nM for the first, 100 to 1000 nM for the second.

Compared with `CC(=O)N(Cc1ccc(C(=O)O)cc1)Cc1ncc(-c2cccc(Nc3cc(C)ccn3)n2)s1` [Compound A-709, 4-[(N-acetyl-N-{5-[6-(4-methylpyridin-2-ylamino)pyridin-2-yl]thiazol-2-ylmethyl}amino)methyl]benzoic acid], `Cc1ccnc(Nc2cccc(-c3cnc(N(C)c4ccc(/C=C/C(=O)O)cc4)s3)n2)c1` [Compound A-618] is higher in IC50: under 100 nM for the first, 100 to 1000 nM for the second.

Compared with `Cc1ccnc(Nc2cccc(-c3cnc(N4CCC(CC(C)(C)O)CC4)s3)n2)c1` [Compound A-670], `Cc1ccnc(Nc2cccc(-c3cnc(N4CCC(CCO)CC4)s3)n2)c1` [Compound A-677, 2-(1-{5-[6-(4-methylpyridin-2-ylamino)pyridin-2-yl]thiazol-2-yl}piperidin-4-yl)ethanol] is lower in IC50: 100 to 1000 nM for the first, under 100 nM for the second. The second is the more potent here.

Compared with `COCC1CCCN(c2ncc(-c3cccc(Nc4cc(C)ccn4)n3)s2)C1` (centres unmarked) [Compound A-481, N-{6-[2-(3-methoxymethylpiperidin-1-yl)thiazol-5-yl]pyridin-2-yl}-N-(4-methylpyridin-2-yl)amine], `Cc1ccnc(Nc2cccc(-c3cnc(N4CCNCC4)s3)n2)c1` [Compound A-406] is higher in IC50: under 100 nM for the first, 100 to 1000 nM for the second. The first is the more potent here.

First: Cc1ccnc(Nc2cccc(-c3cnc(N4CCC(CC(=O)NS(C)(=O)=O)CC4)s3)n2)c1 [Compound A-633, N-[2-(1-{5-[6-(4-methylpyridin-2-ylamino)pyridin-2-yl]thiazol-2-yl}piperidin-4-yl)acetyl]methanesulfonamide]
Second: Cc1ccnc(Nc2cccc(-c3cnc(N4CCC[C@H]4C(=O)NS(C)(=O)=O)s3)n2)c1 [Compound A-646]
The IC50 of the first is lower: under 100 nM for the first, 100 to 1000 nM for the second. The first is the more potent here.

First: CNC(=O)[C@@H]1CCCN1Cc1ncc(-c2cccc(Nc3cc(C)ccn3)n2)s1 [Compound A-666]
Second: CCC(C(=O)O)C1CCN(c2ncc(-c3cccc(Nc4cc(C)ccn4)n3)s2)CC1 (centres unmarked) [Compound A-698, 2-(1-{5-[6-(4-methylpyridin-2-ylamino)pyridin-2-yl]thiazol-2-yl}piperidin-4-yl)butyric acid]
The IC50 of the first is higher: 100 to 1000 nM for the first, under 100 nM for the second.

First: Cc1ccnc(Nc2cccc(-c3cnc(N4CCC5(CC4)CC5C(=O)O)s3)n2)c1 (centres unmarked) [Compound A-712, 6-{5-[6-(4-methylpyridin-2-ylamino)pyridin-2-yl]thiazol-2-yl}-6-azaspiro[2.5]octane-1-carboxylic acid]
Second: Cc1ccnc(Nc2cccc(-c3cnc(N4CCC(C(=O)N(C)CCO)CC4)s3)n2)c1 [Compound A-448]
The IC50 of the first is lower: under 100 nM for the first, 100 to 1000 nM for the second.

`Cc1cccc(Nc2cccc(-c3cnc(N4CCC(CC(=O)O)CC4)s3)n2)n1` [Compound A-628] and `Cc1ccc(Nc2cccc(-c3cnc(N4CCC(CC(=O)O)CC4)s3)n2)nc1` [Compound A-629] fall in the same range of IC50: 100 to 1000 nM for the first, 100 to 1000 nM for the second.

`O=C(O)C(F)C1CCN(c2ncc(-c3cccc(Nc4cnccn4)n3)s2)CC1` (centres unmarked) [Compound A-715, fluoro-(1-{5-[6-(pyrazin-2-ylamino)pyridin-2-yl]thiazol-2-yl}piperidin-4-yl)acetic acid dihydrochloride] and `COc1ccnc(Nc2cccc(-c3cnc(N4CCC(CC(=O)O)CC4)s3)n2)c1` [Compound A-637, (1-{5-[6-(4-methoxypyridin-2-ylamino)pyridin-2-yl]thiazol-2-yl}piperidin-4-yl)acetic acid dihydrochloride] cannot be ordered by IC50: under 100 nM for the first, under 100 nM for the second.

`CNC(=O)C(C(C)C)N(C)c1ncc(-c2cccc(Nc3cc(C)ccn3)n2)s1` (centres unmarked) [Compound A-674] and `Cc1ccnc(Nc2cccc(-c3cnc(N(C)C(C(=O)NCC(F)(F)F)C(C)C)s3)n2)c1` (centres unmarked) [Compound A-676] fall in the same range of IC50: 100 to 1000 nM for the first, 100 to 1000 nM for the second.

First: N#Cc1ccnc(Nc2cccc(-c3cnc(N4CCC(CC(=O)O)CC4)s3)n2)c1 [Compound A-650, (1-{5-[6-(4-cyanopyridin-2-ylamino)pyridin-2-yl]thiazol-2-yl}piperidin-4-yl)acetic acid dihydrochloride]
Second: O=C(O)CC1CCN(c2ncc(-c3cccc(Nc4ncccn4)n3)s2)CC1 [Compound A-679]
The IC50 of the first is lower: under 100 nM for the first, 100 to 1000 nM for the second. The first is the more potent here.

First: CC(C)(C(=O)O)C1CCN(c2ncc(-c3cccc(Nc4ccccn4)n3)s2)CC1 [Compound A-714, 2-methyl-2-(1-{5-[6-(pyridin-2-ylamino)pyridin-2-yl]thiazol-2-yl}piperidin-4-yl)propionic acid]
Second: COCCN(C)C(=O)C1CCN(c2ncc(-c3cccc(Nc4cc(C)ccn4)n3)s2)CC1 [Compound A-451]
The IC50 of the first is lower: under 100 nM for the first, 100 to 1000 nM for the second.

Compared with `Cc1ccnc(Nc2cccc(-c3cnc(N(C)CC(C)(C)O)s3)n2)c1` [Compound A-702, 2-methyl-1-(N-methyl-N-{5-[6-(4-methylpyridin-2-ylamino)pyridin-2-yl]thiazol-2-yl}amino)propan-2-ol], `Cc1ccnc(Nc2cccc(-c3cnc(N(CC(N)=O)C4CCCCC4)s3)n2)c1` [Compound A-669] is higher in IC50: under 100 nM for the first, 100 to 1000 nM for the second.

`NC(=O)[C@@H]1CCCN1c1ncc(-c2cccc(Nc3cc(CC(=O)O)ccn3)n2)s1` [Compound A-559] and `O=C(O)Cc1ccnc(Nc2cccc(-c3cnc(N4CC[C@@H](O)C4)s3)n2)c1` [Compound A-557] fall in the same range of IC50: 100 to 1000 nM for the first, 100 to 1000 nM for the second.

Compared with `Cc1ccnc(Nc2cccc(-c3cnc(N(Cc4ccccc4)[C@H]4CC[C@H](CC(=O)O)CC4)s3)n2)c1` [Compound A-624, [trans-4-(N-benzyl-N-{5-[6-(4-methylpyridin-2-ylamino)pyridin-2-yl]thiazol-2-yl}amino)cyclohexyl]acetic acid], `COC(=O)NCCN(c1ncc(-c2cccc(Nc3cc(C)ccn3)n2)s1)C1CCN(C(C)=O)CC1` [Compound A-522] is higher in IC50: under 100 nM for the first, 100 to 1000 nM for the second.

`Cc1ccnc(Nc2cccc(-c3cnc(N(C)C4CCC(C(=O)N5CCC(O)CC5)CC4)s3)n2)c1` (centres unmarked) [Compound A-495] and `Cc1ccnc(Nc2cccc(-c3cnc(N(CC(=O)NCC(F)(F)F)C4CCCCC4)s3)n2)c1` [Compound A-665] fall in the same range of IC50: 100 to 1000 nM for the first, 100 to 1000 nM for the second.

In the case of `Cc1ccnc(Nc2cccc(-c3cnc(N4CCc5c(CCC(=O)O)cccc5C4)s3)n2)c1` [Compound A-642, 3-(2-{5-[6-(4-methylpyridin-2-ylamino)pyridin-2-yl]thiazol-2-yl}-1,2,3,4-tetrahydroisoquinolin-5-yl)propionic acid], the IC50 is reported as under 100 nM.

Same assay, conditions: Tables 2-x, thiophene compounds B; read-out: sykHTRK ave IC50

`Cc1ccnc(Nc2cccc(-c3ccc(CN4CCc5cc(C(=O)O)ccc5C4)s3)n2)c1` [Compound B-107] and `Cc1ccnc(Nc2cccc(-c3ccc(CN4CCC(C(=O)O)CC4)s3)n2)c1` [Compound B-106] fall in the same range of IC50: 100 to 1000 nM for the first, 100 to 1000 nM for the second.

`Cc1ccnc(Nc2cccc(-c3ccc(CN(C)C(=O)[C@H]4CC[C@H](C(=O)O)CC4)s3)n2)c1` [Compound B-123] and `Cc1ccnc(Nc2cccc(-c3ccc(C(=O)NC[C@H]4CC[C@H](C(=O)O)CC4)s3)n2)c1` [Compound B-111] fall in the same range of IC50: 100 to 1000 nM for the first, 100 to 1000 nM for the second.

First: CC(=O)c1ccc(-c2cccc(N(C(C)=O)c3cc(C)ccn3)n2)s1 [Compound B-89]
Second: C/C(=C\C(=O)O)c1ccc(-c2cccc(Nc3cc(C)ccn3)n2)s1 [Compound B-114]
The IC50 of the first is higher: over 1000 nM for the first, 100 to 1000 nM for the second. The second is the more potent here.

Compared with `Cc1ccnc(Nc2cccc(-c3ccc(CN(Cc4ccccc4)C(=O)CCC(=O)O)s3)n2)c1` [Compound B-126], `Cc1ccnc(Nc2cccc(-c3ccc(CNCc4ccc(C(=O)O)cc4)s3)n2)c1` [Compound B-116, 4-[({5-[6-(4-methylpyridin-2-ylamino)pyridin-2-yl]thiophen-2-ylmethyl}amino)methyl]benzoic acid] is lower in IC50: 100 to 1000 nM for the first, under 100 nM for the second. The second is the more potent here.
